Data set [1] concerns human colorectal cancer HCT116 xenograft.
Procedure: The human colorectal cancer cell line HCT116 was purchased from ATCC. Cells were monolayer cultured in McCoy's 5a medium containing 2 mM L-glutamine and 10% (v/v) fetal bovine serum.
Five-week old male athymic nude mice (BALB/c nu/nu) were purchased from Charles River Japan. The mice were reared for at least one week prior to the experiment at the animal facility of the research institute.
A single cell suspension of HCT116 (8×10^6 cells per mouse) was inoculated subcutaneously into the right side of the abdomen of each mouse. The tumor size of each mouse was measured twice a week and the tumor volume was estimated using the ab^2/2 formula (a and b refer to the length and width of the tumor, respectively). Randomization and administration pharmaceuticals were begun the day the tumor volume exceeded 100 mm^3
The dosage is as follows.
Capecitabine was dissolved and diluted in 40 mM citric acid buffer (pH6) containing 5% gum arabic.
Data set [2] has as its system human lung cancer Calu-6 xenograft. The experiment in a line: Antitumor effect in xenograft model, compound 2A plus CDDP or carboplatin (Example 4). Format: in vivo. The conditions noted are these: mice; i.v. once in a three-week period. On the procedure: The human lung cancer cell line Calu-6 was purchased from ATCC.
CPT-11, CDDP, and carboplatin were purchased from Daiichi Pharmaceuticals, Nippon Kayaku, and Bristol-Meyers Squibb, respectively.
Compound 2A, CPT-11, CDDP, and carboplatin were dissolved and diluted in a saline solution. […] CDDP and carboplatin were intravenously administered once in a three-week period.
In one therapeutic cycle, compound 2A and CPT-11 were administered once a week for three consecutive weeks, and CDDP and carboplatin were administered once in the three-week period.

Data set [3] concerns human pancreatic cancer Capan-1 xenograft. The following applies: mice; i.v. once a week for four consecutive weeks.
Procedure: A single cell suspension of Capan-1 (8.4×10^6 cells per mouse) was inoculated subcutaneously into the right side of the abdomen of each mouse. The tumor size of each mouse was measured twice a week and the tumor volume was estimated using the ab^2/2 formula (a and b refer to the length and width of the tumor, respectively). Randomization and administration of pharmaceuticals were begun the day the tumor volume exceeded 100 mm^3
Gemcitabine was dissolved and diluted in physiological saline, and intravenously administered once a week for four consecutive weeks.
Gemcitabine was administered once a week for four consecutive weeks.

Where two headings read alike, the source gives them in different places.

Consider `CCCCCOC(=O)Nc1nc(=O)n([C@@H]2O[C@H](C)[C@@H](O)[C@H]2O)cc1F` [capecitabine], for which the “MTD (maximum tolerated dose)” value in data set [1] (mouse, in vivo, po) is recorded as 360 mg/kg/injection. Take `N.N.O=C([O-])C1(C(=O)[O-])CCC1.[Pt+2]` [carboplatin]: the “MTD (maximum tolerated dose)” value in data set [2] was determined as 50 mg/kg/injection. On to `CCCCCN1C=Nc2cccc3nc4c(c1c23)Cn1c-4cc2c(c1=O)COC(=O)[C@@]2(CC)OC(=O)CN(C)C(=O)CN.Cl` [compound 2A, (9S)-9-ethyl-9-(glycyl-sarcosyloxy)-1-pentyl-1H,12H-pyrano[3″,4″:6′,7′]indolizino[1′,2′:6,5]pyrido[4,3,2-de]quinazoline-10,13(9H,15H)-dione hydrochloride], for which, in data set [1] (mice, i.v. once during a three-week period, actually measured weight of the hydrochloride), the “MTD (maximum tolerated dose)” value was 60 mg/kg/injection. The “MTD (maximum tolerated dose) as free base” value in data set [1] (mice, i.v. once during a three-week period, weight converted to free base) was found to be 47 mg/kg/injection. Take `Nc1ccn([C@@H]2O[C@H](CO)[C@@H](O)C2(F)F)c(=O)n1` [gemcitabine]: the “MTD (maximum tolerated dose)” value in data set [3] came out at 400 mg/kg/injection.

For the origin of these results see patent US8022047B2, “Combination anticancer agents” (Chugai Seiyaku Kabushiki Kaisha, priority 2005, dated 2011).
